Assay results as given in patent US20050008558A1, “Fullerene derivatives and processes for producing the same” (Eiichi NAKAMURA, priority 2003, published 2005).
In brackets after ≈: the same amount, converted by molar mass.

Assays:
[1] = Solubility in organic solvents at 25° C.
[2] = Oxidation test: toluene solutions allowed to stand in air at room temperature, HPLC peak area ratio; assay type: physicochemical; details: for Peak area ratio (%) of starting compound to whole peak area: toluene solution 0.33 mg/mL, in air, HPLC UV 290 nm, time 0 day (initial); for Change in peak area ratio on preservation as a solution (in words): long period of time
Source text: The stability in air of the fullerene derivatives of the present invention may be confirmed, for example, by analyzing the change in quality thereof with time by HPLC. More specifically, the stability in air can be determined as follows. That is, a toluene solution of the fullerene derivatives of the present invention which is allowed to stand in air at room temperature, is subjected to HPLC using an octadecyl-bonded silica gel column (hereinafter referred to merely as “ODS” column), an eluent composed of toluene and methanol and a UV wavelength of 290 nm to measure the rate of reduction in area ratio of a peak attributed to the fullerene derivatives to whole peaks as observed. Concretely, it can be evaluated by the stability in air of solution of fullerene derivative according to the present invention to the solution of same fullerene derivative to the present one except for having a hydrogen atom on cyclopentadiene ring of fullerene skeleton, for example, a C60Ph5CH3 solution to a C60Ph5H solution (Ph represents a phenyl group). For example, the rate of reduction in peak area ratio of the fullerene derivatives according to the present invention is usually 1/20 or lower, preferably 1/100 or lower than that of the case where one having a hydrogen atom on cyclopentadiene ring, namely C60Ph5H, is used under the same conditions.
90 mL of a toluene solution of C60Ph5H (0.33 mg/mL) and 90 mL of a toluene solution of C60Ph5Me obtained in Example 10 (0.33 mg/mL) were respectively prepared and allowed to stand in air at room temperature. The prepared solutions were sampled in an amount of 0.5 mL for each every several days, and subjected to HPLC analysis to examine the change in quality thereof with time. The HPLC analysis conditions were ODS; column size: 150 mm×4.6 mmφ; eluent: toluene/methanol=4/6; flow rate: 1.0 mL/min; detector used: UV 290 nm.

[3] = toluene solution in air, time 1 day
[4] = toluene solution in air, time 2 days
[5] = toluene solution in air, time 6 days
[6] = toluene solution in air, time 8 days
[7] = toluene solution in air, time 9 days
[8] = toluene solution in air, time 14 days
[9] = toluene solution in air, time 15 days
[10] = toluene solution in air, time 16 days
[11] = toluene solution in air, time 20 days
[12] = toluene solution in air, time 22 days
[13] = toluene solution in air, time 23 days
[14] = toluene solution in air, time 63 days

Peak area ratio (%) of starting compound to whole peak area [2] [%]	Peak area ratio (%) [2, 3] [%]	Peak area ratio (%) [2, 4] [%]	Peak area ratio (%) [2, 5] [%]	Peak area ratio (%) [2, 6] [%]	Peak area ratio (%) [2, 7] [%]	Peak area ratio (%) [2, 8] [%]	Peak area ratio (%) [2, 9] [%]	Peak area ratio (%) [2, 10] [%]	Peak area ratio (%) [2, 11] [%]	Peak area ratio (%) [2, 12] [%]	Peak area ratio (%) [2, 13] [%]	Peak area ratio (%) [2, 14] [%]	Compound	Change in peak area ratio on preservation as a solution (in words) ([2]; toluene solution in air)	other results
													CCOC(=O)CCCC12C3=C4C5=C1C1(C)c6c7c8c9c(c%10c%11c%12c(c%13c%14c%15c(c%16c%17c%18c(c1c1c6c6c8c8c%19c9c%11c9c%11c%12c%14c%12c%14c%15c%17c%15c%17c%18c1c1c6c8c6c(c9%19)c(c%11%12)c(c%14%15)c6c1%17)C%162C)C3%13C)C4%10C)C57C (stereo not shown) [C60Me5—(CH2)3CO2Et, 1-(3-(ethoxycarbonyl)propyl)-6,9,12,15,18-pentamethyl-1,6,9,12,15,18-hexahydro-(C60-Ih)[5,6]fullerene]		Solubility in chloroform (CHCl3) ([1]; CHCl3, 25° C.): 35.9 mg/mL (≈ 39.4 mM); Solubility in N,N-dimethylformamide (DMF) ([1]; DMF, 25° C.): 15.4 mg/mL (≈ 16.9 mM); Solubility in ethyl acetate (EtOAc) ([1]; EtOAc, 25° C.): 3.9 mg/mL (≈ 4.28 mM); Solubility in tetrahydrofuran (THF) ([1]; THF, 25° C.): 103.0 mg/mL (≈ 113 mM)
98.5	97.5	96.7	94.4	93.2	92.9	90.6	90.1	89.6	88.6	87.4	87.4	70.1	c1ccc(C23C4=C5C6C7=C4C4(c8ccccc8)c8c2c2c9c3c3c%10c%11c(c%12c%13c%14c(c%15c%16c%17c(c4c4c8c8c2c2c%18c9c%10c9c%10c%11c%13c%11c%13c%14c%16c%14c%16c%17c4c4c8c2c2c(c%189)c(c%10%11)c(c%14%13)c2c4%16)C7%15c2ccccc2)C%126c2ccccc2)C53c2ccccc2)cc1 (stereo not shown) [Example C60Ph5H]	considerable reduction in peak area ratio	Rate of reduction of the peak area ratio ([2]; toluene solution in air): about 0.45 % per day; Peak area ratio (%) ([2]; toluene solution in air, time 5 days): 95.0%; Peak area ratio (%) ([2]; toluene solution in air, time 12 days): 92.0%; Peak area ratio (%) ([2]; toluene solution in air, time 13 days): 91.7%; Peak area ratio (%) ([2]; toluene solution in air, time 26 days): 85.9%; Peak area ratio (%) ([2]; toluene solution in air, time 30 days): 84.3%; Peak area ratio (%) ([2]; toluene solution in air, time 33 days): 81.5%; Peak area ratio (%) ([2]; toluene solution in air, time 37 days): 80.4%; Peak area ratio (%) ([2]; toluene solution in air, time 43 days): 78.9%; Peak area ratio (%) ([2]; toluene solution in air, time 51 days): 74.1%; Peak area ratio (%) ([2]; toluene solution in air, time 58 days): 71.4%; Peak area ratio (%) ([2]; toluene solution in air, time 65 days): 70.1%
98.8	98.4	98.9	98.4	98.7	98.5	98.3	98.9	98.4	98.4	97.1	97.4	98.3	CC12C3=C4C5=C1C1(c6ccccc6)c6c7c8c9c(c%10c%11c%12c(c%13c%14c%15c(c%16c%17c%18c(c1c1c6c6c8c8c%19c9c%11c9c%11c%12c%14c%12c%14c%15c%17c%15c%17c%18c1c1c6c8c6c(c9%19)c(c%11%12)c(c%14%15)c6c1%17)C%162c1ccccc1)C3%13c1ccccc1)C4%10c1ccccc1)C57c1ccccc1 (stereo not shown) [Example C60Ph5Me, 1-methyl-6,9,12,15,18-pentaphenyl-1,6,9,12,15,18-hexahydro-(C60-Ih)[5,6]fullerene]	kept substantially unchanged	Peak area ratio (%) ([2]; toluene solution in air, time 3 days): 98.8%; Peak area ratio (%) ([2]; toluene solution in air, time 7 days): 98.3%; Peak area ratio (%) ([2]; toluene solution in air, time 10 days): 98.0%; Peak area ratio (%) ([2]; toluene solution in air, time 21 days): 98.4%; Peak area ratio (%) ([2]; toluene solution in air, time 25 days): 98.5%; Peak area ratio (%) ([2]; toluene solution in air, time 31 days): 97.9%; Peak area ratio (%) ([2]; toluene solution in air, time 38 days): 98.2%; Peak area ratio (%) ([2]; toluene solution in air, time 48 days): 98.1%
